Test results published in patent publication US3935203A, “Derivatives of 3-oxo-2,3-dihydro-1,4-benzoxazine” (CERPHA, priority 1972, dated 1976).

How the values were obtained:
[1] = test system: pain induced by heat contact stimulation; test: Analgesic activity, Eddy's test in mice (hot plate); type: in vivo; conditions: for ED50 / inhibition in vivo at 400 mg/kg / inhibition in vivo at 200 mg/kg: Mus musculus, po, 0.5 h; for ED50 / ED50 Eddy's test: per os, 30 minutes after administration, heat stimulus; for ED50 Eddy's test: 30 min; for inhibition in vivo at 400 mg/kg: 400 mg/kg per os; for inhibition in vivo at 200 mg/kg: 200 mg/kg per os
Experimental: (§1) Pain is induced by heat contact stimulation (mice placed on a heating plate kept at 56.5°C) and the time taken to react to the stimulus (licking of the front paws) is measured.
(§2) Batches of 10 animals selected at random are examined 30 minutes after the oral administration of the product to be tested in a gummy suspension.
(§3) The percentage of analgesic activity is established by taking as 100% activity the average response time of the control animals increased by 10 seconds.

in vivo = conditions: mouse, po
[2] = test system: pain induced by the intraperitoneal injection of acetic acid; test: Analgesic activity, Koster's test on mice (acetic acid writhing); type: in vivo, male mice; conditions: for ED50 / inhibition in vivo at 400 mg/kg / inhibition in vivo at 200 mg/kg: Mus musculus, po; for inhibition in vivo at 400 mg/kg: 400 mg/kg per os; for inhibition in vivo at 200 mg/kg: 200 mg/kg per os
Experimental: (§4) The pain is induced by the intraperitoneal injection of 0.10 ml/10 g of a 3% acetic acid solution.
(§5) The painful crises thus obtained (writhing of the trunk, stretching of the hind legs) are counted for 20 minutes following the injection.
(§6) The product to be tested was administered 30 minutes before the pain had been induced in batches of 10 male mice distributed at random. The percentage of analgesic activity is represented by the percentage decrease in the number of reactions established in relation to the controls.

[3] = test system: pain (heat stimulus and chemical stimulus); test: Antalgic power compared with amidopyrine (Eddy's and Koster's tests); type: in vivo, mice; conditions: per os, reference amidopyrine
Experimental: as §1, §2, §3, §4, §5, §6

kaolin oedema = test: Anti-oedematous activity, kaolin oedema in rats (Wilhelmi and Domenjoz); type: in vivo, male rats; conditions: per os; for ED50: Rattus norvegicus, po, paw volume 5 hours after kaolin, read-out: Kaolin oedema test ED50 per os
Experimental: 3. […] ACTIVITY Kaolin oedema in rats in accordance with […] The product to be tested was orally administered to batches of 8 male rats distributed at random 30 minutes before the intraplantar injection of 0.15 ml. of a 10% kaolin suspension. The volume of the paw is measured by plethysmography 5 hours after injection of the irritant. For each rat, the percentage oedema is evaluated in relation to the initial volume. The percentage activity corresponds to the percentage decrease in oedema (average oedema of the treated animals in comparison with the average oedema of the control animals).

[4] = Table III
[5] = per os, 30 minutes before acetic acid, chemical stimulus

| Structure (SMILES) | ED50 [1] [mg/kg] | LD50 (in vivo) [mg/kg] | ED50 [2, 5] [mg/kg] | ED50 (kaolin oedema) [mg/kg] | also measured |
| --- | --- | --- | --- | --- | --- |
| Cc1c(N(C)C)c(=O)n(-c2ccccc2)n1C [Amidopyrine, amidopyrine, reference compound] | 300 | 1850 | 120 | – | – |
| CC1Oc2ccc(Cl)cc2N(CC(O)CO)C1=O (stereo not drawn) [Example 1, 2-methyl-3-oxo-4-(2,3-dihydroxypropyl)-6-chloro-2,3-dihydro-1,4-benzoxazine] | 60 | 850 | 60 | – | ED50 Eddy's test [1]: 63 mg/kg; antalgic power relative to amidopyrine [3]: as much as five times the activity of this reference product; ED50 Koster's test [2, 5]: 57 mg/kg |
| CCC1Oc2ccc(Cl)cc2N(CC(O)CO)C1=O (stereo not drawn) [Example 2, 2-ethyl-3-oxo-4-(2,3-dihydroxypropyl)-6-chloro-2,3-dihydro-1,4-benzoxazine] | 60 | 1660 | 60 | – | ED50 Eddy's test [1]: 61 mg/kg; antalgic power relative to amidopyrine [3]: as much as five times the activity of this reference product |
| O=C1COc2ccc(Cl)cc2N1CC(O)CO (stereo not drawn) [Example 3, 3-oxo-4-(2,3-dihydroxypropyl)-6-chloro-2,3-dihydro-1,4-benzoxazine] | 200 | 1700 | 100 | 200 | anti-oedematous activity compared with phenylbutazone (kaolin oedema; reference phenylbutazone): comparable with that of phenylbutazone |
| CC1Oc2cc(Br)c(Cl)cc2N(CC(O)CO)C1=O (stereo not drawn) [Example 4, 2-methyl-3-oxo-4-(2,3-dihydroxypropyl)-6-chloro-7-bromo-2,3-dihydro-1,4-benzoxazine] | – | > 1500 | – | – | inhibition in vivo at 400 mg/kg [1]: 42%; inhibition in vivo at 400 mg/kg [2]: 68% |
| Cc1ccc2c(c1)N(CC(O)CO)C(=O)C(C)O2 (stereo not drawn) [Example 5, 2-methyl-3-oxo-4-(2,3-dihydroxypropyl)-6-methyl-2,3-dihydro-1,4-benzoxaine] | – | > 1500 | – | – | inhibition in vivo at 400 mg/kg [1]: 60%; inhibition in vivo at 400 mg/kg [2]: 66% |
| CCCc1cc(OC)c2c(c1)N(CC(O)CO)C(=O)C(C)O2 (stereo not drawn) [Example 6, 2-methyl-3-oxo-4-(2,3-dihydroxypropyl)-6-n-propyl-8-methoxy-2,3-dihydro-1,4-benzoxazine] | – | > 1500 | – | – | inhibition in vivo at 400 mg/kg [1]: 52%; inhibition in vivo at 400 mg/kg [2]: 46% |
| CC1Oc2ccc([N+](=O)[O-])cc2N(CC(O)CO)C1=O (stereo not drawn) [Example 7, 2-methyl-3-oxo-4-(2,3-dihydroxypropyl)-6-nitro-2,3-dihydro-1,4-benzoxazine] | 300 | > 1000 | 300 | 400 | DL50 per os in mice [4]: > 1000 mg/kg |
| CCC1Oc2ccccc2N(CC(O)CO)C1=O (stereo not drawn) [Example 8, 2-ethyl-3-oxo-4-(2,3-dihydroxypropyl)-2,3-dihydro-1,4-benzoxazine] | – | 1200 | – | – | inhibition in vivo at 200 mg/kg [1]: 5%; inhibition in vivo at 200 mg/kg [2]: 21% |
| CCCC1Oc2ccc(Cl)cc2N(CC(O)CO)C1=O (stereo not drawn) [Example 9, 2-n-propyl-3-oxo-4-(2,3-dihydroxypropyl)-6-chloro-2,3-dihydro-1,4-benzoxazine] | 100 | > 1500 | 80 | – | – |
| CCC1Oc2ccc(Br)cc2N(CC(O)CO)C1=O (stereo not drawn) [Example 10, 2-ethyl-3-oxo-4-(2,3-dihydroxypropyl)-6-bromo-2,3-dihydro-1,4-benzoxazine] | 200 | > 1500 | 300 | – | – |
| COc1ccc2c(c1)N(CC(O)CO)C(=O)C(C)O2 (stereo not drawn) [Example 11, 2-methyl-3-oxo-4-(2,3-dihydroxypropyl)-6-methoxy-2,3-dihydro-1,4-benzoxazine] | – | > 1000 | – | 200 | inhibition in vivo at 200 mg/kg [1]: 16%; inhibition in vivo at 200 mg/kg [2]: 10%; DL50 per os in mice [4]: > 1000 mg/kg |
| C=CCc1cc(OC)c2c(c1)N(CC(O)CO)C(=O)C(C)O2 (stereo not drawn) [Example 12, 2-methyl-3-oxo-4-(2,3-dihydroxypropyl)-6-allyl-8-methoxy-2,3-dihydro-1,4-benzoxazine] | 300 | > 1500 | 300 | – | – |
| CCCCC1Oc2ccc(Cl)cc2N(CC(O)CO)C1=O (stereo not drawn) [Example 13, 2-n-butyl-3-oxo-4-(2,3-dihydroxypropyl)-6-chloro-2,3-dihydro-1,4-benzoxazine] | 100 | 1500 | 100 | – | – |
| CC(=O)OCC(CN1C(=O)C(C)Oc2ccc(Cl)cc21)OC(C)=O (stereo not drawn) [Example 14, 2-methyl-3-oxo-4-(2,3-diacetoxypropyl)-6-chloro-2,3-dihydro-1,4-benzoxazine] | – | > 1500 | – | 400 | inhibition in vivo at 400 mg/kg [1]: 43%; inhibition in vivo at 400 mg/kg [2]: 35%; DL50 per os in mice [4]: > 1500 mg/kg |
| CCC1Oc2ccc(Cl)cc2N(CC(COC(C)=O)OC(C)=O)C1=O (stereo not drawn) [Example 15, 2-ethyl-3-oxo-4-(2,3-diacetoxypropyl)-6-chloro-2,3-dihydro-1,4-benzoxazine] | – | > 1500 | – | 400 | inhibition in vivo at 200 mg/kg [1]: 14%; inhibition in vivo at 200 mg/kg [2]: 20%; DL50 per os in mice [4]: > 1500 mg/kg |
| CC(=O)OCC(CN1C(=O)COc2ccc(Cl)cc21)OC(C)=O (stereo not drawn) [Example 16, 3-oxo-4-(2,3-diacetoxypropyl)-6-chloro-2,3-dihydro-1,4-benzoxazine] | – | > 1500 | – | 400 | inhibition in vivo at 400 mg/kg [1]: 28%; inhibition in vivo at 400 mg/kg [2]: 51%; DL50 per os in mice [4]: > 1500 mg/kg |
| CCCCC1C(=O)N(c2ccccc2)N(c2ccccc2)C1=O [Phenylbutazone, phenylbutazone, reference compound] | – | – | – | 200 | – |
